Consider six compounds from ChEMBL document CHEMBL5370574, “Discovery and Characterization of Moracin C as an Anti-Gouty Arthritis/Hyperuricemia Candidate by Docking-Based Virtual Screening and Pharmacological Evaluation” (J Nat Prod, 2023).

Data set [1] concerns the target T1, Xanthine dehydrogenase/oxidase (Homo sapiens, UniProt P47989). Kind of data set: Inhibition of XOD (unknown origin) using xanthine as substrate at 1 uM preincubated for 30 mins followed by xanthine addition measured after 30 mins by microplate reader relative to control. As to conditions: 0.5 h, time 60 min.
The target in data set [2] is T1, Xanthine dehydrogenase/oxidase. Nature of the data set: Inhibition of XOD (unknown origin) using xanthine as substrate preincubated for 30 mins followed by xanthine addition measured after 30 mins by microplate reader.
For data set [3], the system named is Rattus norvegicus. Kind of data set: Antiarthritic activity against MSU-induced Sprague-Dawley rat OA model assessed as inflammation index at 10 mg/kg, ig administered for 3 days. The class given is functional. To be noted: time 3 day.
In data set [4] the test system is Mus musculus. Nature of the data set: Hypouricemic activity in hypoxanthine/potassium oxonate-induced hyperuricemic Kunming mouse model assessed as decrease in serum uric acid level at 5 to 20 mg/kg, po administered for 7 days measured 4 hrs post last dose by biochemical analyzer. The class given is functional, organism-based. To be noted: dose 5-20 mg/kg, time 7.0 day.

Data set [5] has as its system Mus musculus. Kind of data set: Hypouricemic activity in hypoxanthine/potassium oxonate-induced hyperuricemic Kunming mouse model assessed as decrease in uric acid level in urine at 5 to 20 mg/kg, po administered for 7 days measured 4 hrs post last dose by automatic biochemical analyzer. Type of data set: functional, organism-based. To be noted: dose 5-20 mg/kg, time 7.0 day.

Data set [6] has as its system Mus musculus. Kind of data set: Hypouricemic activity in hypoxanthine/potassium oxonate-induced hyperuricemic Kunming mouse model assessed as decrease in serum XOD level at 5 to 20 mg/kg, po administered for 7 days measured 4 hrs post last dose by automatic biochemical analyzer. To be noted: dose 5-20 mg/kg, time 7.0 day. Type of data set: functional, organism-based.

Data set [7] deals with Mus musculus. Kind of data set: Hypouricemic activity in hypoxanthine/potassium oxonate-induced hyperuricemic Kunming mouse model assessed as decrease in liver XOD level at 5 to 20 mg/kg, po administered for 7 days measured 4 hrs post last dose by automatic biochemical analyzer. The class given is functional, organism-based. As to conditions: dose 5-20 mg/kg, time 7.0 day.

The test system of data set [8] is RAW264.7. Nature of the data set: Antiinflammatory activity in MSU-induced mouse RAW264.7 cells assessed as decrease in TNF-alpha expression preincubated for 2 hrs followed by MSU stimulation and measured after 12 hrs by ELISA. The class given is functional, cell-based. To be noted: dose 1-10 µM, time 14.0 hrs. For orientation: ELISA stands for enzyme-linked immunosorbent assay.

Data set [9] concerns RAW264.7. Nature of the data set: Antiinflammatory activity in MSU-induced mouse RAW264.7 cells assessed as decrease in IL-1beta expression preincubated for 2 hrs followed by MSU stimulation and measured after 12 hrs by ELISA. Type of data set: functional, cell-based. To be noted: dose 1-10 µM, time 14.0 hrs.
Data set [10] has as its system RAW264.7. Kind of data set: Antiinflammatory activity in MSU-induced mouse RAW264.7 cells assessed as decrease in TNF-alpha mRNA expression at 1 to 10 uM preincubated for 2 hrs followed by MSU stimulation and measured after 12 hrs by qRT-PCR analysis. Type of data set: functional, cell-based. As to conditions: dose 1-10 µM, time 14.0 hrs. A general note: Real-time PCR tracks product formation cycle by cycle.

For data set [11], the system named is RAW264.7. Kind of data set: Antiinflammatory activity in MSU-induced mouse RAW264.7 cells assessed as decrease in IL-1beta mRNA expression at 1 to 10 uM preincubated for 2 hrs followed by MSU stimulation and measured after 12 hrs by qRT-PCR analysis. Type of data set: functional, cell-based. As to conditions: dose 1-10 µM, time 14.0 hrs.
In data set [12] the test system is Rattus norvegicus. Kind of data set: Antiarthritic activity against MSU-induced Sprague-Dawley rat OA model assessed as reduction of serum TNF-alpha protein expression level at 5 to 20 mg/kg, ig administered for 3 days by ELISA. Type of data set: functional, organism-based. To be noted: dose 5-20 mg/kg, time 3.0 day.
The test system of data set [13] is Rattus norvegicus. Kind of data set: Antiarthritic activity against MSU-induced Sprague-Dawley rat OA model assessed as reduction of serum IL-1beta protein expression level at 5 to 20 mg/kg, ig administered for 3 days by ELISA. As to conditions: dose 5-20 mg/kg, time 3.0 day. Type of data set: functional, organism-based.
The test system of data set [14] is Rattus norvegicus. Nature of the data set: Antiarthritic activity against MSU-induced Sprague-Dawley rat OA model assessed as reduction of serum IL-1beta protein expression level at 10 mg/kg, ig administered for 3 days by ELISA. Type of data set: functional, organism-based. To be noted: time 3.0 day.
The subject of data set [15] is Rattus norvegicus. Kind of data set: Antiarthritic activity against MSU-induced Sprague-Dawley rat OA model assessed as inflammation index at 5 mg/kg, ig administered for 3 days. Type of data set: functional. To be noted: time 3 day.
In data set [16] the test system is Rattus norvegicus. Kind of data set: Antiarthritic activity against MSU-induced Sprague-Dawley rat OA model assessed as dysfunction index at 5 mg/kg, ig administered for 3 days. Type of data set: functional. As to conditions: time 3 day.
In data set [17] the test system is Rattus norvegicus. Nature of the data set: Antiarthritic activity against MSU-induced Sprague-Dawley rat OA model assessed as toe swelling volume variation at 5 mg/kg, ig administered for 3 days. Type of data set: functional. To be noted: time 3 day.
The test system of data set [18] is Rattus norvegicus. Nature of the data set: Antiarthritic activity against MSU-induced Sprague-Dawley rat OA model assessed as dysfunction index at 10 mg/kg, ig administered for 3 days. The class given is functional. As to conditions: time 3 day.
In data set [19] the test system is Rattus norvegicus. Kind of data set: Antiarthritic activity against MSU-induced Sprague-Dawley rat OA model assessed as toe swelling volume variation at 10 mg/kg, ig administered for 3 days. Type of data set: functional. To be noted: time 3 day.
Data set [20] deals with Rattus norvegicus. Kind of data set: Antiarthritic activity against MSU-induced Sprague-Dawley rat OA model assessed as inflammation index at 20 mg/kg, ig administered for 3 days. The class given is functional. As to conditions: time 3 day.
The test system of data set [21] is Rattus norvegicus. Nature of the data set: Antiarthritic activity against MSU-induced Sprague-Dawley rat OA model assessed as dysfunction index at 20 mg/kg, ig administered for 3 days. Type of data set: functional. As to conditions: time 3 day.
The subject of data set [22] is Rattus norvegicus. Nature of the data set: Antiarthritic activity against MSU-induced Sprague-Dawley rat OA model assessed as toe swelling volume variation at 20 mg/kg, ig administered for 3 days. The class given is functional. As to conditions: time 3 day.
The test system of data set [23] is Rattus norvegicus. Kind of data set: Antiarthritic activity against MSU-induced Sprague-Dawley rat OA model assessed as dysfunction index at 1 mg/kg, ig administered for 3 days. The class given is functional, organism-based. As to conditions: time 3.0 day.
In data set [24] the test system is Rattus norvegicus. Kind of data set: Antiarthritic activity against MSU-induced Sprague-Dawley rat OA model assessed as toe swelling volume variation at 1 mg/kg, ig administered for 3 days. To be noted: time 3.0 day. The class given is functional, organism-based.
In data set [25] the test system is Rattus norvegicus. Nature of the data set: Antiarthritic activity against MSU-induced Sprague-Dawley rat OA model assessed as reduction in NLRP3 mRNA expression level in tissue joint at 5 to 20 mg/kg, ig administered for 3 days by qRT-PCR analysis. As to conditions: dose 5-20 mg/kg, time 3.0 day. Type of data set: functional, organism-based.
The test system of data set [26] is Rattus norvegicus. Kind of data set: Antiarthritic activity against MSU-induced Sprague-Dawley rat OA model assessed as reduction in ASC mRNA expression level in tissue joint at 5 to 20 mg/kg, ig administered for 3 days by qRT-PCR analysis. To be noted: dose 5-20 mg/kg, time 3.0 day. Type of data set: functional, organism-based.
In data set [27] the test system is Rattus norvegicus. Kind of data set: Antiarthritic activity against MSU-induced Sprague-Dawley rat OA model assessed as reduction in caspase-1 mRNA expression level in tissue joint at 5 to 20 mg/kg, ig administered for 3 days by qRT-PCR analysis. The class given is functional, organism-based. As to conditions: dose 5-20 mg/kg, time 3.0 day.
In data set [28] the test system is Rattus norvegicus. Kind of data set: Antiarthritic activity against MSU-induced Sprague-Dawley rat OA model assessed as inflammation index at 1 mg/kg, ig administered for 3 days. To be noted: time 3.0 day. Type of data set: functional, organism-based.
Data set [29] deals with T2, Solute carrier family 2, facilitated glucose transporter member 9 (Homo sapiens) (UniProt Q9NRM0).
T2 sequence (whole entry): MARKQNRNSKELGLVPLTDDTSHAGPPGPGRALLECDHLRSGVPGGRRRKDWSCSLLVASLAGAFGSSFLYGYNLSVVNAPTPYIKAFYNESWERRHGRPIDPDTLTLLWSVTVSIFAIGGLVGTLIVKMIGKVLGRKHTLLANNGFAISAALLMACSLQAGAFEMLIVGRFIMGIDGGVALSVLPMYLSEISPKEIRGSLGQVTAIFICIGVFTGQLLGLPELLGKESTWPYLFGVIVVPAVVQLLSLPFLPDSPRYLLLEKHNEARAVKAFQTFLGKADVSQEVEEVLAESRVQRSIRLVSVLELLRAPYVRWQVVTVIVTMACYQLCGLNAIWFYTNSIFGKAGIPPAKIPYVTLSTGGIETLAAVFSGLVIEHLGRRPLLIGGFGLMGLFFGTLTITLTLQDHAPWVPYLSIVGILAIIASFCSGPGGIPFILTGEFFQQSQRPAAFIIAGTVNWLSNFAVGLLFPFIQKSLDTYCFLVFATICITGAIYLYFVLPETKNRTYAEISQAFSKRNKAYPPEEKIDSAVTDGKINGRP
Kind of data set: Inhibition of GLUT9 (unknown origin) expressed in HEK293T cells assessed as effect on uric acid induced current at 10 uM. Type of data set: cell-based.

The target of data set [30] is T3, Solute carrier family 22 member 12 (Homo sapiens, UniProt Q96S37).
T3 sequence (Q96S37 whole entry): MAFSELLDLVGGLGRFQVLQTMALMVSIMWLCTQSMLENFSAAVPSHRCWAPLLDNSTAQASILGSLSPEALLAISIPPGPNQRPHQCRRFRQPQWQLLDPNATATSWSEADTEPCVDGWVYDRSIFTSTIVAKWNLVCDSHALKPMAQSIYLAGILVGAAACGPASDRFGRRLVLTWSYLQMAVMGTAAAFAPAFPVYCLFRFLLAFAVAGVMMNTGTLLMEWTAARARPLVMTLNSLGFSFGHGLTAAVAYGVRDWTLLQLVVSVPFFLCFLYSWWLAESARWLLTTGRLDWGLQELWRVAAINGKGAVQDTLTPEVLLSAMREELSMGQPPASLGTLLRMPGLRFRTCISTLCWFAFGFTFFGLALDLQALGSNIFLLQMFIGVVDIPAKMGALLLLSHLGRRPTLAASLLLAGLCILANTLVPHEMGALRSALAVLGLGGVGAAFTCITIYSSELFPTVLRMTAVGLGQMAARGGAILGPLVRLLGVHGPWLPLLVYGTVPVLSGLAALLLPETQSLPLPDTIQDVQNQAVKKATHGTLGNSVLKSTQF
Nature of the data set: Inhibition of URAT1 (unknown origin) expressed in HEK293T cells assessed as reduction in 14C-uric acid uptake at 10 uM. Type of data set: cell-based.

Molecules are shown by their SMILES. Active and inactive are the calls of the source. The calls are words filed in the database; no cut-off is given here.

T1 sequence (P47989 whole entry): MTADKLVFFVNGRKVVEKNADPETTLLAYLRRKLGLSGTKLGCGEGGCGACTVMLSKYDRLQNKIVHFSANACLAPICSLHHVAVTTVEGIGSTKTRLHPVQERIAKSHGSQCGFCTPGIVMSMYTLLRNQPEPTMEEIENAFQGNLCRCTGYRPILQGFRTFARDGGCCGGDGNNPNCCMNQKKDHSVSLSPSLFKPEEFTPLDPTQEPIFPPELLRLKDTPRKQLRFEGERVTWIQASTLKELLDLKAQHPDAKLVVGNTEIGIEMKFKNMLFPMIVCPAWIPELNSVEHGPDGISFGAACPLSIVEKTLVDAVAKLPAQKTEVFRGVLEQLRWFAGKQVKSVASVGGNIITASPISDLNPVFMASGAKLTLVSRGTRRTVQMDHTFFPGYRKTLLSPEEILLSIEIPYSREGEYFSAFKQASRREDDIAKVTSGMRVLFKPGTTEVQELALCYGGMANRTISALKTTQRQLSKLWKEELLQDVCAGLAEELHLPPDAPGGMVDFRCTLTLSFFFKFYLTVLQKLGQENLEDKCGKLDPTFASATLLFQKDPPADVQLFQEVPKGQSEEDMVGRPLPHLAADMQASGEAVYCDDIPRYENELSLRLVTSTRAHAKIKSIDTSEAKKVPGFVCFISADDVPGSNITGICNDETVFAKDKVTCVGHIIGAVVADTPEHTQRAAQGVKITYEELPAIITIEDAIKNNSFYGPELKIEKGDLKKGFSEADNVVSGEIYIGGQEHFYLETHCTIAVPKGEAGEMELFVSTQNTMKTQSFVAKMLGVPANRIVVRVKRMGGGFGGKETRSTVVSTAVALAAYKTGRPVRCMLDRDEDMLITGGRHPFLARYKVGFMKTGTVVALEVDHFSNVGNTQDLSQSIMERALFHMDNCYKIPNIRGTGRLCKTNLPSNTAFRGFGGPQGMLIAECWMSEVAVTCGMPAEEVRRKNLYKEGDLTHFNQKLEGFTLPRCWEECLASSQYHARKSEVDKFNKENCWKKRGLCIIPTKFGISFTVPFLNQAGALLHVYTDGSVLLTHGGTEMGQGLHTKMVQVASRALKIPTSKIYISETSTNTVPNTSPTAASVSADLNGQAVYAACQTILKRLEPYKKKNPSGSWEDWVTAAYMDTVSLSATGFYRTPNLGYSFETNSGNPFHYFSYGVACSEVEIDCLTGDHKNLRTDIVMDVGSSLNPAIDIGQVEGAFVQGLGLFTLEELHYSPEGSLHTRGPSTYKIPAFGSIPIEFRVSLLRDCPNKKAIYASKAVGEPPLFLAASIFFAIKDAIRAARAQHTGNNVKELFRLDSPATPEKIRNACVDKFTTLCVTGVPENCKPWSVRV

Usually inhibition stands for the share of the control response that was lost under treatment. Broadly, the IC50 is the concentration at which inhibition is half-maximal. A low value points to inhibition by little substance. In turn, `COc1ccc2c(=O)c(-c3ccc(O)cc3)coc2c1` [ISOFORMONENTIN] had an inhibition at 1 µM in data set [1] of 25%. For the same compound, the IC50 in data set [2] turned out to be 13 µM.

`COc1cc(O)c2c(=O)cc(-c3cc(OC)c(OC)c(OC)c3)oc2c1` [CORYMBOSIN]: in data set [1], the inhibition at 1 µM is less than 20%.

`COc1cc2c(cc1OC)C(Cc1ccc(O)cc1)N(C)CC2` (configuration not stated): the inhibition at 1 µM in data set [1] was less than 20%.

`CC(C)=CCc1c(O)cc(-c2cc3ccc(O)cc3o2)cc1O` [MORACIN C]: the Activity_index with Rattus norvegicus [3] is given as 1; in the data set with Rattus norvegicus [15], 1; in the data set with Rattus norvegicus [16] it was 0; in the data set with Rattus norvegicus [18], 0; in the data set on Rattus norvegicus [20], 0.6; with Rattus norvegicus [21], 0. This compound returned an inhibition at 1 µM in data set [1] of 70%. For the same compound, in [2], the IC50 came to 0.25 µM. Further, the result in the data set on Mus musculus [4], in the data set with Mus musculus [6], with Mus musculus [7], in the data set with RAW264.7 [10], in the data set with RAW264.7 [11] and with Rattus norvegicus [12] was Active. Further, the result in the data set with Rattus norvegicus [13], with Rattus norvegicus [14], in the data set on Rattus norvegicus [23], with Rattus norvegicus [24], in the data set with Rattus norvegicus [25] and with Rattus norvegicus [26] was Active. The outcome in the data set on Rattus norvegicus [27] and with Rattus norvegicus [28] was Active. In the data set on Mus musculus [5], the result was inactive. Besides, the Activity result is “Dose-Dependent Effect” in the data set with RAW264.7 [8]; “Dose-Dependent Effect” in the data set on RAW264.7 [9]; 0.16 mL in the data set with Rattus norvegicus [17]; 0.1 mL in the data set with Rattus norvegicus [19]; 0.06 mL in the data set with Rattus norvegicus [22]. In [29], the inhibition result was “inactive”. For the same compound, the “inhibition (INH)” value in data set [30] was “Not Active”.

For `CC1(C)C=Cc2c(O)cc(-c3cc4ccc(O)cc4o3)cc2O1` [MORACIN D], testing at 1 µM in [1] gave an inhibition of 32%. The half-inhibitory concentration (IC50) in data set [2] came out at 5.1 µM.

With `CC1(C)C=Cc2cc(-c3cc(=O)c4c(O)cc(O)cc4o3)ccc2O1`, in [1], the inhibition at 1 µM was less than 20%.
